Measurements reported in patent US6825230B2, “Spiro and dispiro 1,2,4-trixolane antimalarials” (Medicines for Malaria Venture MMV, priority 2002, dated 2004).

System: ANKA strain of P. berghei
Experiment: Single dose STI in vivo screen in infected mice
Design: species or system Plasmodium berghei
Conditions: for Survival (days) 3 mg/kg SSV po / Activity (%) 3 mg/kg SSV po: single 3 mg/kg po in SSV; for Activity (%) 3 mg/kg SSV po / Activity (%) 10 mg/kg SSV po: percent reduction in parasitemia on day 3; for Survival (days) 10 mg/kg SSV po: single 10 mg/kg po in SSV, untreated 6-7 days; for Activity (%) 10 mg/kg SSV po: single 10 mg/kg po in standard suspending vehicle (SSV) on day 1 post-infection
Protocol: In the single dose STI in vivo screen, Moro SPF or NMRI mice infected with the ANKA strain of P. berghei (groups of three mice) were treated on day one post-infection with trioxolanes dissolved or suspended in 3% ethanol and 7% Tween 80. […] SSV consists of 0.5% w/v CMC, 0.5% v/v benzyl alcohol, 0.4% v/v Tween 80, and 0.9% w/v sodium chloride in water. Antimalarial activity was measured by percent reduction in parasitemia on day three post-infection and survival times compared to an untreated control group. Survival to day 30 post-infection is considered to be a cure. […] Other factors influencing antimalarial activity include the stability of carbon radicals formed by β-scission subsequent to the initial electron transfer to the peroxide bond and the influence of steric effects remote from the peroxide bond on the interactions between carbon radicals and potential drug targets.
Moro NMRI male mice (Fu Albino specific pathogen free) weighing 18±2 g were infected intravenously (i.v.) with 2×10^7 P. berghei ANKA strain-infected erythrocytes from donor mice on day 0 of the experiment. From donor mice with circa 30% parasitemia, heparinized blood was taken and diluted in physiological saline to 10^8 parasitized erythrocytes per ml. An aliquot (0.2 ml) of this suspension was injected i.v. into experimental and control groups of mice. […] Throughout the experiments, mice were kept in groups of three or five animals in Makrolon type II cages in an air-conditioned animal room at 22 to 23° C.
They were administered per os (p.o.) in a total volume of 0.01 ml per gram of mouse. The activity of the compound was determined by a variety of methods outlined in subsequent sections. Survival time was also recorded, and survival to day 30 post-infection was considered to be a cure.

## NC(=O)c1ccc(NC[C@H]2CC[C@]3(CC2)OOC2(O3)C3CC4CC(C3)CC2C4)cc1 (some centres unmarked) [OZ286]
  Survival (days) 3 mg/kg SSV po: 7.0 days
  Activity (%) 3 mg/kg SSV po: 60%
  Survival (days) 10 mg/kg SSV po: 8.7 days
  Activity (%) 10 mg/kg SSV po: 99.73%

## CCOC(=O)CNC[C@H]1CC[C@]2(CC1)OO[C@]1(O2)C2CC3CC(C2)CC1C3 [OZ290]
  Survival (days) 3 mg/kg SSV po: 7.0 days
  Activity (%) 3 mg/kg SSV po: 95%
  Survival (days) 10 mg/kg SSV po: 9.0 days
  Activity (%) 10 mg/kg SSV po: 99.64%

## CCNC(=O)NC[C@H]1CC[C@]2(CC1)OO[C@]1(O2)C2CC3CC(C2)CC1C3 [OZ291]
  Survival (days) 3 mg/kg SSV po: 6.8 days
  Activity (%) 3 mg/kg SSV po: 34%
  Survival (days) 10 mg/kg SSV po: 8.0 days
  Activity (%) 10 mg/kg SSV po: 98%

## c1cncc(NC[C@H]2CC[C@]3(CC2)OO[C@]2(O3)C3CC4CC(C3)CC2C4)c1 [OZ293]
  Survival (days) 3 mg/kg SSV po: 7.4 days
  Activity (%) 3 mg/kg SSV po: 77%
  Survival (days) 10 mg/kg SSV po: 8.8 days
  Activity (%) 10 mg/kg SSV po: 99.58%

## NS(=O)(=O)c1ccc(NC[C@H]2CC[C@]3(CC2)OO[C@]2(O3)C3CC4CC(C3)CC2C4)cc1 [OZ298]
  Survival (days) 3 mg/kg SSV po: 9.0 days
  Activity (%) 3 mg/kg SSV po: 98%
  Survival (days) 10 mg/kg SSV po: 9.4 days

## O=c1ccn(C[C@H]2CC[C@]3(CC2)OO[C@]2(O3)C3CC4CC(C3)CC2C4)cc1 [OZ302]
  Survival (days) 3 mg/kg SSV po: 9.0/9.0 days
  Activity (%) 3 mg/kg SSV po: 88%
  Survival (days) 10 mg/kg SSV po: 9.0/9.0 days

## O=CN1CCN(C[C@H]2CC[C@]3(CC2)OO[C@]2(O3)C3CC4CC(C3)CC2C4)CC1 [OZ303]
  Survival (days) 3 mg/kg SSV po: 7.6 days
  Activity (%) 3 mg/kg SSV po: 69%
  Survival (days) 10 mg/kg SSV po: 8.6 days

## O=C(NC[C@H]1CC[C@]2(CC1)OO[C@]1(O2)C2CC3CC(C2)CC1C3)c1ccccn1 [OZ304]
  Survival (days) 3 mg/kg SSV po: 8.8 days
  Activity (%) 3 mg/kg SSV po: 61%
  Survival (days) 10 mg/kg SSV po: 8.2 days
  Activity (%) 10 mg/kg SSV po: 98%

## NCCNC(=O)C[C@H]1CC[C@]2(CC1)OO[C@]1(O2)C2CC3CC(C2)CC1C3 [OZ305]
  Survival (days) 3 mg/kg SSV po: 9.6 days
  Activity (%) 3 mg/kg SSV po: 96%
  Survival (days) 10 mg/kg SSV po: 9.2 days

## CS(=O)(=O)N(CC(N)=O)C[C@H]1CC[C@]2(CC1)OO[C@]1(O2)C2CC3CC(C2)CC1C3 [OZ308]
  Survival (days) 3 mg/kg SSV po: 6.6 days
  Activity (%) 3 mg/kg SSV po: 30%
  Survival (days) 10 mg/kg SSV po: 7.8 days
  Activity (%) 10 mg/kg SSV po: 86%

## Cn1ccnc1S(=O)(=O)C[C@H]1CC[C@]2(CC1)OO[C@]1(O2)C2CC3CC(C2)CC1C3 [OZ310]
  Survival (days) 3 mg/kg SSV po: 8.2 days
  Activity (%) 3 mg/kg SSV po: 38%
  Survival (days) 10 mg/kg SSV po: 7.8 days
  Activity (%) 10 mg/kg SSV po: 81%

## NC(=O)C1CCN(C(=O)C[C@H]2CC[C@]3(CC2)OO[C@]2(O3)C3CC4CC(C3)CC2C4)CC1 [OZ311]
  Survival (days) 3 mg/kg SSV po: 7.0 days
  Activity (%) 3 mg/kg SSV po: 40%
  Survival (days) 10 mg/kg SSV po: 8.6 days
  Activity (%) 10 mg/kg SSV po: 80%
